Entries after “also recorded” stand apart in the source; their conditions may differ. Where no end group is shown, it is not given here.
Key:
[1] = tested on: COS-7 cells (wild-type p53); assay: MTS cell viability in COS-7 cells; format: cell-based; conditions: 5 and 10 μM, 24 hours, serum-free media
Protocol: (§1) MTS assays were performed with Promega CellTiter One MTS solution according to protocol. MIA PaCa-2 cells were seeded at 2,000 cells/well, MCF-7 at 4,000 cells/well, COS-7 at 5,000 cells/well and HeLa at 3,000 cells/well. These values were individually optimized for the assay prior to experimentation. All cells were incubated for 24 hours to allow proper adherence to the well. On treatment day, wells were washed with warm PBS and media was replaced with a serum-free version. If treatment peptides were purified from crude form, they were also filtered using a 0.2 µm filter before introduction to cells. On MTS reading day, media was changed again (serum-free) and 20 μL of MTS was added to each 100 μL well. Cells were incubated at 37° C. for 2 hours before reading absorbance at 490 nm using Synergy H1 (BioTek) equipped with Gen5 software. Background absorbance from control wells was quantified and subtracted from obtained experimental absorbance values.
(§2) It has been shown that the ADH compounds have no toxic effect on N2a cells, which carry wild-type p53. Their effect on other wild-type p53 cell lines: MCF-7 and COS-7 was further investigated. Cells were incubated with ADH compounds 17, 27, 40, 41 and 46 for 24 hours at 5 and 10 μM in serum-free media before determining cell viability via MTS (FIG. 2).

[2] = tested on: MIA PaCa-2 cells (R248W p53 mutant); assay: MTS cell viability assay in MIA PaCa-2 cells; format: cell-based; conditions: 5 and 10 μM, 24 and 48 hours, serum-free media
Protocol: MIA PaCa-2 (CRL-1420) cells, which contain the R248W p53 contact mutant, were obtained from ATCC and cultured in ATCC-formulated Dulbecco's Modified Eagle's Medium supplemented with 10% fetal bovine serum (FBS), 2.5% horse serum, 4% 200 mM L-glutamine and 1% penicillin/streptomycin. A separate stock of serum-free medium was kept for cell viability assays. Cells were split at a 1:3 ratio 2-3 times a week and maintained at 80% confluence and >85% viability. Viability was regularly measured through Trypan Blue dilution correction during cell counting. Cell cultures were stored at 37° C. in T75 coated flasks and kept under 5% CO2.
MTS assays were performed with Promega CellTiter One MTS solution according to protocol. MIA PaCa-2 Cells were seeded at 2,000 cells/well and were incubated for 24 hours to allow proper adherence to the well. On treatment day, wells were washed with warm PBS and media was replaced with a serum-free version. If treatment peptides were purified from crude form, they were also filtered using a 0.2 µm filter before introduction to cells. On MTS reading day, media was changed again (serum-free) and 20 μL of MTS was added to each 100 μL well. Cells were incubated at 37° C. for 2 hours before reading absorbance at 490 nm using Synergy H1 (BioTek) equipped with Gen5 software.
as §1
The two classes of designed peptide inhibitors have been introduced to a cancer cell-line that harbors the R248W p53 mutant, MIA PaCa-29. It has been hypothesized that upon co-localization of the inhibitors with mutant p53, mutant p53 aggregates will be abrogated, resulting in the release of wild-type p53 from cellular inclusions and, eventually, the induction of apoptosis. The 4 designed peptides were introduced to MIA PaCa-2 cells at 5 and 10 μM for 24 and 48 hour incubation periods. MTS assay was used to assess cell viability after treatment, whereby the bio-reduction of the MTS tetrazolium compound results in detectable color change that is proportional to the number of viable cells left in a sample (see Example 1).
MIA PaCa-2 cells were incubated with ADH compounds 17, 27, 31, 37, 39, 40, 41, 45, 46, and 52 (5 and 10 μM) for 24 and 48 hours. Cell viability was determined using the MTS assay.

[3] = tested on: MCF-7 cells (wild-type p53); assay: MTS cell viability in MCF-7 cells; format: cell-based; conditions: 5 and 10 μM, 24 hours, serum-free media
Protocol: as §1, §2

[4] = molecular target: R248W mutant p53 peptide (Homo sapiens, UniProt P04637, R248W); assay: Thioflavin T (ThT) assay, inhibition of R248W peptide aggregation; format: biochemical; conditions: 1:1 ratio to R248W peptide, 37° C., 10 hours
Protocol: (§3) This fluorescence can be monitored overtime to estimate the increase in beta-sheet structure of incubated peptides, indicating amyloid formation. […] 50 μM ThT was incubated at 37° C. with varying concentrations of peptides and inhibitors to estimate both the aggregation propensity of mutant peptides and the abrogation of aggregation brought about by inhibitor treatment. All samples were sonicated, including the ThT solution, prior to each addition of peptides to ensure the obtainment of clear sigmoidal curves. Fluorescence in transparent-bottom 96-well sample plates was monitored by the cell plate reader Synergy H1 (BioTek).
To test the inhibition efficacy of these peptides, they were subjected to a ThT assay whereby a fixed concentration of R248W was treated with varying concentrations of the respective inhibitor peptide in the presence of ThT dye and buffer. […] It is hypothesized that this effect is due to the relative hydrophobicity of the PAS sequence (FFLIPKG) (FIG. 4B).
10 compounds based on the oligopyridylamide molecular scaffolds have been tested on mutant p53 aggregation models. A ThT assay was used to test the inhibition capability of each compound at a 1:1 ratio to the R248W mutant peptide.

[5] = tested on: HeLa cells; assay: MTS cell viability in HeLa cells; format: cell-based; conditions: 5 or 10 μM, 24 hours, serum-free media
Protocol: as §1
It has been hypothesized that the ADH compounds may bind to wild-type p53 in a manner that preserves its main function, yet disrupts other protein-protein interactions in the cellular environment. HeLa cells are known to have very low p53 expression levels, which is attributed to the expression of the HPV-E6 protein. E6 proteins target p53 for proteasomal degradation via the ubiquitin pathway by binding to p53's core domain (residues 94-292) and C-terminus. Because it has been hypothesized that the effective ADH compounds (40, 41, and 46) target the p53 DNA-binding domain located in its core region, the compounds may prevent E6 binding, leading to p53 accumulation and eventually apoptosis. […] Since ReACp53 is a sequence-specific peptide that targets the p53 DNA-binding domain, it may also prevent E6 binding through a similar mechanism.

[6] = molecular target: R248W mutant p53 peptide aggregates (Homo sapiens, UniProt P04637, R248W); assay: Multi-step ThT assay, abrogation of pre-formed R248W aggregates; format: biochemical; conditions: 50 μM R248W incubated 35 minutes at 37° C., then equimolar ADH compound
Protocol: as §3
Accordingly, a multi-step ThT assay was designed that would evaluate the ability of an inhibitor to abrogate aggregation at different stages of amyloid formation. Based on the sigmoidal curve produced in ThT assays of the R248W peptide, 3 time points were selected to introduce the inhibitor to mutant p53 aggregates. The first would occur at 0 mins, where no R248W aggregates would have been previously formed. The second time point would be approximately 30 mins after aggregation begins, during the exponential increase in fluorescence of the R248W ThT sigmoidal curve. The last time point would be during the plateau phase of the curve at approximately 5 hours after initiation of the assay, whereby aggregates reach an equilibrium phase and stabilize in solution.
In order to target p53 aggregation in the cellular environment, the ADH compounds according to the invention would need to bind and abrogate pre-formed p53 aggregates, as well as prevent additional aggregation. Inhibition of pre-formed aggregates would be a crucial feature of therapeutics that successfully target mutant p53 aggregation in cancer. Using the multi-step thioflavin T assay, where the inhibitor is added to R248W at either elongation or the plateau phases of amyloid formation, 50 μM of the R248W peptide was incubated at 37° C. for 35 minutes before adding an equimolar ratio of the ADH compound (FIG. 1).

Compound	toxicity in COS-7 cells (MTS) [1]	effect of ADH compounds on MIA PaCa-2 cell viability (MTS) [2]	toxicity in MCF-7 cells (MTS) [3]	inhibition of R248W mutant p53 aggregation by ADH compounds (ThT fluorescence) [4]	toxicity in HeLa cells (MTS) [5]	abrogation of R248W aggregates at the elongation phase [6]	cytotoxicity of peptides in MIA PaCa-2 cells (MTS) [2]
COC(=O)c1ccc(NC(=O)c2ccc(NC(=O)c3ccc([N+](=O)[O-])c(OCC(=O)O)n3)c(OCc3ccccc3)n2)c(OCC(=O)O)n1 [ADH-17]	No significant toxicity; also recorded: do not induce significant toxicity	non-toxic effects	No significant toxicity; also recorded: do not induce significant toxicity				
COC(=O)c1ccc(NC(=O)c2ccc(NC(=O)c3ccc([N+](=O)[O-])c(OCc4ccccc4)n3)c(OCC(=O)O)n2)c(OCC(=O)O)n1 [ADH-27]	No significant toxicity; also recorded: do not induce significant toxicity		No significant toxicity; also recorded: do not induce significant toxicity				
COC(=O)c1ccc(NC(=O)c2ccc(NC(=O)c3ccc(NC(=O)c4ccc([N+](=O)[O-])c(OCC(C)C)n4)c(OCc4ccccc4)n3)c(OCC(=O)O)n2)c(OCC(=O)O)n1 [ADH-31]				inhibit mutant p53 aggregation with varying levels of effectiveness			
COC(=O)c1ccc(NC(=O)c2ccc(NC(=O)c3ccc([N+](=O)[O-])c(OCCCN)n3)c(OCc3ccccc3)n2)c(OCCCN)n1 [ADH-37]				inhibit mutant p53 aggregation with varying levels of effectiveness			
COC(=O)c1ccc(NC(=O)c2ccc(NC(=O)c3ccc([N+](=O)[O-])c(OC(C)C)n3)c(OCc3ccccc3)n2)c(OCCCN)n1 [ADH-39]				inhibit mutant p53 aggregation with varying levels of effectiveness			
CCCCOc1nc(C(=O)Nc2ccc(C(=O)Nc3ccc(C(=O)OC)nc3OCCCN)nc2OCCCN)ccc1[N+](=O)[O-] [ADH-40]	No significant toxicity; also recorded: do not induce significant toxicity	highly significant toxicity; also recorded: extremely significant effect on cell viability	No significant toxicity; also recorded: do not induce significant toxicity	inhibit mutant p53 aggregation with varying levels of effectiveness	Significant toxicity; also recorded: significantly toxic	abrogate aggregation at the elongation phase; also recorded: able to target and abrogate aggregates at the elongation phase	
COC(=O)c1ccc(NC(=O)c2ccc(NC(=O)c3ccc([N+](=O)[O-])c(OCC(C)C)n3)c(OCCCN)n2)c(OCCCN)n1 [ADH-46]	No significant toxicity; also recorded: do not induce significant toxicity	highly significant toxicity; also recorded: extremely significant effect on cell viability	No significant toxicity; also recorded: do not induce significant toxicity	inhibit mutant p53 aggregation with varying levels of effectiveness	Significant toxicity; also recorded: significantly toxic	abrogate aggregation at the elongation phase; also recorded: able to target and abrogate aggregates at the elongation phase	
ReACp53: recently developed peptide that targets p53 aggregation, oligoarginine tag, (image prefix) RPILTRITLE (also: oligoarginine tag) [reference compound]	No significant toxicity; also recorded: does not appear to induce toxicity		No significant toxicity; also recorded: does not appear to induce toxicity		induce significant toxicity; also recorded: significantly toxic		induce cell death; also recorded: significantly cytotoxic

— patent US10500197B2, “Use of oligopyridylamides to inhibit mutant p53 amyloid formation and restore its tumor suppressor function” (New York University, priority 2017, dated 2019)
